{"source": "patent US8586632B2", "about": "“Use of the irritating principal oleocanthal in olive oil, as well as structurally and functionally similar compounds” (Monell Chemical Senses Center, priority 2007, dated 2013)", "key": {"[1]": {"test_system": "cultured rat trigeminal neurons", "assay": "Intracellular calcium level in cultured rat trigeminal neurons (ratiometric Fura2 imaging)", "assay_type": "cell-based", "parameters": "key to TG Neuron Activation: The highest scale (+++) was assigned to the analogs that had approximately the same magnitude of response and excited the same number of neurons as oleocanthal; ++ responses were assigned to analogs that elicited intermediate responses to an intermediated number of cells; The + responses were weak but detectable and were observed in very few cells; No detectable response is indicated by 0", "conditions": "for TG Neuron Activation: single concentration 5 micromolar, response relative to oleocanthal; for intracellular calcium response in trigeminal neurons (in words): cultured rat trigeminal neurons; for number of trigeminal neurons responding, as % of the response to oleocanthal: 5 micromolar oleocanthal = 100%", "description": "Activity of synthetic oleocanthal analogs was assessed by measurement of the intracellular calcium level in cultured rat trigeminal neurons. Flavor or taste perception is made up of the sensory experience of three chemical senses: taste, smell, and chemical-induced irritation or pain. This third component is mainly determined by the impact of chemical stimuli that are transmitted to the brain via the trigeminal nerve.\nTrigeminal ganglia were harvested from 1-3 day old Sprague-Dawley rat pups. Neurons were dissociated in Hanks Buffered Saline Solution (HBSS) with trypsin (0.0625%) for 15 minutes, collagenase (1 mg/ml) and DNase (0.1 mg/ml) for 45 minutes, and then were separated from myelin/debris using a 15/30/60% Percoll gradient. The neurons were plated on poly-1-lysine/laminin-coated coverslips in modified neurobasal medium supplemented with B27, 100 ng/ml Nerve Growth Factor (NGF) and kept at 37° C., 5% CO2. […] Intracellular calcium was measured ratiometrically using excitation at 340 and 380 nm and emission at 510 nm. Experiments were performed at 31-32° C. Neurons were stimulated by compounds in Ringers solution (pH=7.34) that flowed over the neurons for 15 sec.\nSynthetic (−)oleocanthal and related analogs were dissolved in absolute ethanol and then added to Ringer's solution adjusted at pH=7.34 with a final ethanol concentration of less than 0.1%. The octanol-water partition coefficient (Log P), expressing compound lipophilicity, was calculated based on chemical structure with the Interactive Analysis Log P predictor website. In general, the higher the log P number, the greater the lipophilicity, and the greater the tendency of the compound to partition into the lipid phase of the cell membranes.\nOleocanthal activates rat trigeminal neurons; 5 microM of the olive oil irritant elicits a robust intracellular calcium increase in about 25 to about 35% of cultured rat trigeminal neurons (FIG. 6). Therefore, to assess the irritation potency of oleocanthal analogs and in order to avoid human consumption of unnatural compounds, activity was determined by measurement of the intracellular calcium level in cultured rat trigeminal neurons. […] Thus, both aldehyde groups, as well as unsaturation, are required to maintain full activity. […] Analog 11 is of particular interest. Like oleocanthal, analog 11 (or 4-DHPEA-EDA) is a secoiridoid derivative naturally present in extra virgin olive oil. Oleocanthal and 4-DHPEA-EDA formation occurs during olive oil production by enzymatic and chemical degradation of their respective precursors ligstroside and oleuropein, two glucosylated secoiridoids abundantly synthesized in unripe olives (FIG. 9). Oleocanthal and 4-DHPEA-EDA are structurally very similar—the sole difference being a second phenolic hydroxyl group in 4-DHPEA-EDA. […] For the experiment illustrated in FIG. 8, analog 13 (5, 10, 20 and 50 micomolar) was applied on a separate coverslip containing trigeminal neurons and activation was determined. This was followed by application of 5 micromolar oleocanthal to the same four coverslips. For each coverslip, the number of trigeminal neurons responding to oleocanthal was determined and defined as 100%. The number of trigeminal neurons responding to analog 13 corresponded to approximately 6% (5 micromolar analog 13), 25% (10 micromolar analog 13), 45% (20 micromolar analog 13) and 96% (50 micromolar analog 13) of the response to oleocanthal. For each coverslip, 18-20 trigeminal neurons were sensitive to oleocanthal. […] Analog 13 is very close in structure to oleocanthal (Table 2), lacking only a single carbon. […] While not wishing to be bound by any one theory, it is believed that the shorter chain of analog 13 pulls the rigid ring forward creating a steric obstruction to efficacious binding with the receptor."}, "oral irritation": {"test_system": "oral irritation", "conditions": "reported, Anke et al. 1991; cited from earlier work"}, "throat": {"test_system": "throat", "assay": "Throat irritation sensory test of synthetic oleocanthal in corn oil (two-alternative forced-choice)", "assay_type": "in vivo, human", "conditions": "for correct trials, 2AFC throat irritation: ten subjects", "description": "Testing was double-blind and each was exposed to three sets of two samples, one of which was added synthesized oleocanthal and the other served as the blank control. The task was to indicated which of the pair was more irritating. […] Importantly, the effect was dose dependent (FIG. 2 open triangles, dashed line). Ten subjects were tested with non-irritating commercial corn oils presented neat and mixed with either synthesized (−)-oleocanthal or the bitter agent sucrose octaacetate (SOA) (Sigma-Aldrich). […] (−)-Oleocanthal was tested at the highest concentration identified in the ten rated oils, 200 μg/ml, and at one half and whole log steps more dilute 63.25 and 20 μg/ml. SOA was added to the corn oil (4×10^−4, 1×10^−4, 5×10^−5 M) to intensity match the irritation of the three levels of (−)-oleocanthal. Subjects participated in two-alternative forced-choice (2AFC) trials (four trials at every concentration for each subject) and in intensity ratings sessions (four ratings per each oil). For the 2AFC trials subjects were presented with two 3.0 ml corn oil samples with matching intensities of SOA and (−)-oleocanthal in ascending order, and were required to sample oils as described above. While blind to stimulus position, subjects were asked two questions on each trial, “Which of the two oils was more irritating in the throat?” and “Which one was more bitter?” At the 20 μg/ml & 5×10^−5 M level most subjects reported on some trials that the same oil was both the more irritating and the more bitter of the two. […] Subjects performed at chance when selecting among two unadulterated corn oils, when the correct choice was randomly assigned prior to testing. […] The other two concentrations were correct 39/40 and 40/40 trials. For the intensity rating trials subjects were presented with all eight oils in ascending order, counterbalanced for stimulus order and asked to rate the throat irritation and bitterness of every oil on a general labeled magnitude scale."}}, "data": [{"smiles": "C/C=C(/C=O)[C@@H](CC=O)CC(=O)OCCc1ccccc1", "note": "[Analog 1]", "values": [{"measurement": "TG Neuron Activation", "setting": "[1]", "value": "+++"}]}, {"smiles": "C/C=C(/C=O)[C@@H](CC=O)CC(=O)OCCc1ccc(F)cc1", "note": "[Analog 2]", "values": [{"measurement": "TG Neuron Activation", "setting": "[1]", "value": "+++"}]}, {"smiles": "C/C=C(/C=O)[C@@H](CC=O)CC(=O)OCCc1ccccc1O", "note": "[Analog 3]", "values": [{"measurement": "TG Neuron Activation", "setting": "[1]", "value": "+++"}]}, {"smiles": "C/C=C(/C=O)[C@@H](CC=O)CC(=O)OCCc1cccc(O)c1", "note": "[Analog 4]", "values": [{"measurement": "TG Neuron Activation", "setting": "[1]", "value": "+++"}]}, {"smiles": "C/C=C1\\[C@H](CC(=O)OCCc2ccc(O)cc2)C[C@@H](O)[C@H]1O", "note": "[Analog 5]", "values": [{"measurement": "intracellular calcium response in trigeminal neurons (in words)", "setting": "[1]", "value": "did not elicit intracellular calcium increase"}, {"measurement": "TG Neuron Activation", "setting": "[1]", "value": 0}]}, {"smiles": "C/C=C(/C=O)[C@@H](CC=O)CC(=O)OC", "note": "[Analog 6]", "values": [{"measurement": "TG Neuron Activation", "setting": "[1]", "value": "++"}]}, {"smiles": "C/C=C(/C=O)[C@@H](CC=O)CC(=O)OCCCCC", "note": "[Analog 7]", "values": [{"measurement": "TG Neuron Activation", "setting": "[1]", "value": "+++"}]}, {"smiles": "C/C=C(/C=O)[C@@H](CC=O)CC(=O)OCCCc1ccc(O)cc1", "note": "[Analog 8]", "values": [{"measurement": "TG Neuron Activation", "setting": "[1]", "value": "+++"}]}, {"smiles": "C/C=C(/C=O)[C@@H](CCO)CC(=O)OCCc1ccc(O)cc1", "note": "[Analog 9]", "values": [{"measurement": "intracellular calcium response in trigeminal neurons (in words)", "setting": "[1]", "value": "did not elicit intracellular calcium increase"}, {"measurement": "TG Neuron Activation", "setting": "[1]", "value": "+"}]}, {"smiles": "C/C=C(/CO)[C@@H](CCO)CC(=O)OCCc1ccc(O)cc1", "note": "[Analog 10]", "values": [{"measurement": "intracellular calcium response in trigeminal neurons (in words)", "setting": "[1]", "value": "did not elicit intracellular calcium increase"}, {"measurement": "TG Neuron Activation", "setting": "[1]", "value": 0}]}, {"smiles": "C/C=C(/C=O)[C@@H](CC=O)CC(=O)OCCc1ccc(O)c(O)c1", "note": "[Analog 11, 4-DHPEA-EDA]", "values": [{"measurement": "oral irritation (in words)", "setting": "oral irritation", "value": "very little oral irritation"}, {"measurement": "TG Neuron Activation", "setting": "[1]", "value": "+++"}]}, {"smiles": "CC[C@@H](C=O)[C@@H](CC=O)CC(=O)OCCc1ccc(O)cc1", "note": "[Analog 12]", "values": [{"measurement": "intracellular calcium response in trigeminal neurons (in words)", "setting": "[1]", "value": "did not elicit intracellular calcium increase"}, {"measurement": "TG Neuron Activation", "setting": "[1]", "value": 0}]}, {"smiles": "C/C=C(/C=O)[C@@H](CC=O)CC(=O)OCc1ccc(O)cc1", "note": "[Analog 13]", "values": [{"measurement": "number of trigeminal neurons responding, as % of the response to oleocanthal", "setting": "[1]; 5 micromolar analog 13", "value": "approximately 6%"}, {"measurement": "number of trigeminal neurons responding, as % of the response to oleocanthal", "setting": "[1]; 10 micromolar analog 13", "value": "about 25%"}, {"measurement": "number of trigeminal neurons responding, as % of the response to oleocanthal", "setting": "[1]; 20 micromolar analog 13", "value": "~45", "unit": "%"}, {"measurement": "number of trigeminal neurons responding, as % of the response to oleocanthal", "setting": "[1]; 50 micromolar analog 13", "value": "~96", "unit": "%"}, {"measurement": "intracellular calcium response in trigeminal neurons (in words)", "setting": "[1]", "value": "small responses"}, {"measurement": "TG Neuron Activation", "setting": "[1]", "value": "+"}, {"measurement": "multiple of concentration needed to reach the potency of oleocanthal", "setting": "[1]; trigeminal neuron stimulation, FIG. 8", "value": "approximately 10 times"}]}, {"smiles": "C/C=C(/C=O)[C@@H](CC=O)CC(=O)OCCc1ccc(O)cc1", "note": "[Oleocanthal (−), 2-(4-hydroxyphenyl)ethyl, 4-formyl-3-(2-oxoethyl)-4-hexenoic acid ester]", "values": [{"measurement": "correct trials, 2AFC throat irritation", "setting": "throat; 20 μg/ml in corn oil vs intensity-matched SOA", "value": "24 out of 40"}, {"measurement": "correct trials, 2AFC throat irritation", "setting": "throat; 63.25 μg/ml in corn oil vs intensity-matched SOA", "value": "39/40"}, {"measurement": "correct trials, 2AFC throat irritation", "setting": "throat; 200 μg/ml in corn oil vs intensity-matched SOA", "value": "40/40"}, {"measurement": "throat irritation (in words)", "setting": "throat; synthetic compound in corn oil", "value": "identical to oleocanthal isolated from premium olive oil"}, {"measurement": "correct identification of the more irritating sample (2AFC)", "setting": "throat; three evaluators, three presentations each, corn oil, approx. twice the concentration in Falconaro olive oil, vs blank, p<0.01", "value": "9 of 9"}, {"measurement": "concentration near detection threshold levels in corn oil", "setting": "throat; throat irritation, 2AFC", "value": "~20", "unit": "µg/mL"}, {"measurement": "TG Neuron Activation", "setting": "[1]", "value": "+++"}]}]}
